For 4 compounds, IC50 results are on record in BindingDB's records for PubMed 12533678 (Japanese Foundation For Cancer Research, 2003).

The nature of series [1]: TP_TRANSPORTER: drug resistance(SN-38) in BCRP-expressing K562 cells.
Series [2] can be described thus: TP_TRANSPORTER: drug resistance(Mitoxantrone) in BCRP-expressing K562 cells.

Molecules are shown by their SMILES.

What is called IC50 is the concentration that gives 50% inhibition. Read a low IC50 as greater potency in that assay. As to `CC/C(=C(/c1ccc(OCCN(C)C)cc1)c1ccc(OCc2ccc([N+](=O)[O-])cc2)cc1)c1ccccc1`, the IC50 in series [1] is over 2000 nM; in series [2], 1500 nM.
On the same counts, the results for `CCC(=O)Oc1ccc(/C(CC)=C(\CC)c2ccc(OC(=O)CC)cc2)cc1` [propanoic acid [4-[(E)-4-[4-(1-oxopropoxy)phenyl]hex-3-en-3-yl]phenyl] ester] are over 3000 nM and over 3000 nM.
On the same counts, the results for `CC/C(=C(/CC)c1ccc(O)cc1)c1ccc(O)cc1` are over 500 nM and 500 nM.
For the compound `CC/C(=C(/c1ccc(OCCN(C)C)cc1)c1ccc(OCc2ccccc2)cc1)c1ccccc1`, the IC50 in series [1] and in series [2] was over 2000 nM each time.
